According to patent US20260015351A1, “METHODS AND COMPOUNDS FOR INHIBITING MKK7 ENZYMES” (AXONIS THERAPEUTICS, INC., priority 2022, published 2026):

What follows are molecules tested against T1, MKK7 (Homo sapiens (Human), UniProt O14733) (assay: In vitro competitive binding assay (kinase-tagged phage / qPCR)). Details: 11-point 3-fold dilution series; Hill slope set to -1.
Protocol: Kinase-tagged T7 phage strains were prepared in an E. coli host derived from the BL21 strain. E. coli were grown to log-phase and infected with T7 phage and incubated with shaking at 32° C. until lysis. The lysates were centrifuged and filtered to remove cell debris. The remaining kinases were produced in HEK-293 cells and subsequently tagged with DNA for qPCR detection. Streptavidin-coated magnetic beads were treated with biotinylated small molecule ligands for 30 minutes at room temperature to generate affinity resins for kinase assays. The liganded beads were blocked with excess biotin and washed with blocking buffer (SeaBlock (Pierce), 1% BSA, 0.05% Tween 20, 1 mM DTT) to remove unbound ligand and to reduce non-specific binding. […] Kds were determined using an 11-point 3-fold compound dilution series with three DMSO control points. […] The kinase concentration in the eluates was measured by qPCR.
An 11-point 3-fold serial dilution of each test compound was prepared in 100% DMSO at 100× final test concentration and subsequently diluted to 1× in the assay (final DMSO concentration=1%). Most Kds were determined using a compound top concentration=30,000 nM. […]
Binding constants (Kds) were calculated with a standard dose-response curve using the Hill equation: […]

T1 sequence (O14733 whole entry): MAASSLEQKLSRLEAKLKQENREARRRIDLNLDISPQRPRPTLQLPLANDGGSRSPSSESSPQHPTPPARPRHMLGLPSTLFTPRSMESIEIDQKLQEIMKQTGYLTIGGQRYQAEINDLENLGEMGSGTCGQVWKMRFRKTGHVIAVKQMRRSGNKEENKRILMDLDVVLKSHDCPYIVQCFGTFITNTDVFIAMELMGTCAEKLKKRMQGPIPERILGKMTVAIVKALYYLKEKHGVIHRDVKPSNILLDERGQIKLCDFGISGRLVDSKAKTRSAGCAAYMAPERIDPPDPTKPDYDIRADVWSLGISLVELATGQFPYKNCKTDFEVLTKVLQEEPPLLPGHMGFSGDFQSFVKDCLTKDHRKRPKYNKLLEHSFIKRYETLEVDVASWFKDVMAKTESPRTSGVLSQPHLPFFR

| SMILES | Kd |
| --- | --- |
| C=CC(=O)N1CCc2ccc(-c3n[nH]c4cc(C)ccc34)cc21 [Compound 4, 1-[6-(6-methyl-1H-indazol-3-yl)-2,3-dihydroindol-1-yl]prop-2-en-1-one] | 7.8 nM |
| C=CC(=O)N1CCCc2ccc(-c3n[nH]c4cc(C)ccc34)cc21 [Compound 12, 1-[7-(6-methyl-1H-indazol-3-yl)-3,4-dihydro-2H-quinolin-1-yl]prop-2-en-1-one] | 71 nM |

These molecules were tested against T1, MKK7 (assay: MKK7 ADP-Glo in vitro pharmacology assay). Details: calculated from remaining activity (%).
Assay type: biochemical
Protocol: A study was conducted to determine the pharmacology of Compounds 1-18 in vitro in a plurality of biological matrices. Compounds 1-18 were prepared into proper concentrations of DMSO solution. The compound stock was then serially diluted into 10 concentrations by 3-fold dilution in 384 pp-plate. 5 nL of compound stock was transferred to a 384 plate. The compound stock was then diluted to 0.74 nM using a solution, which contained 0.79 mL of water, 0.2 mL of 5× Buffer, 2 μL of DTT, 6.66 μL of 7.5% BSA, and 5 μL of 10 mM ATP, to form an MKK7 mixture. The MKK7 mixture was then pre-warmed and 2.5 μL was added to each well designated for the “Test compound” and “High control” well, 2.5 μL solution 1 to each well designated for the “Low control” well. The well was incubated for 30 min and centrifuged at room temperature. Following centrifugation, 5 μL of ADD-Glo Reagent was added to each well and incubated for 60 min after centrifugation at room temperature. 10 μL of ADP-Glo Detection was then added to each well and incubated for 30 min after centrifugation in dark at room temperature. IC50 values were calculated based on the remaining activity (%) using read conversion ratio (CR).

| SMILES | IC50 |
| --- | --- |
| C=CC(=O)N1CCc2ccc(-c3n[nH]c4cnccc34)cc21 [Compound 1, 1-(6-{1H-pyrazolo[3,4-c]pyridin-3-yl}-2,3-dihydroindol-1-yl)prop-2-en-1-one] | 4.8 nM |
| C=CC(=O)N1CCc2c(-c3n[nH]c4ccccc34)cccc21 [Compound 2, 1-[4-(1H-indazol-3-yl)-2,3-dihydroindol-1-yl]prop-2-en-1-one] | 92 nM |
| C=CC(=O)N1CCc2ccc(-c3n[nH]c4ccncc34)cc21 [Compound 3, 1-(6-{1H-pyrazolo[4,3-c]pyridin-3-yl}-2,3-dihydroindol-1-yl)prop-2-en-1-one] | 30 nM |
| C=CC(=O)N1CCc2ccc(-c3n[nH]c4cc(C)ccc34)cc21 [Compound 4, 1-[6-(6-methyl-1H-indazol-3-yl)-2,3-dihydroindol-1-yl]prop-2-en-1-one] | 23 nM |
| N#C/C=C/C(=O)N1CCc2ccc(-c3n[nH]c4ccccc34)cc21 [Compound 5, (2E)-4-[6-(1H-indazol-3-yl)-2,3-dihydroindol-1-yl]-4-oxobut-2-enenitrile] | 70 nM |
| CN(C)C/C=C/C(=O)N1CCc2ccc(-c3n[nH]c4ccccc34)cc21 [Compound 6, (2E)-4-(dimethylamino)-1-[6-(1H-indazol-3-yl)-2,3-dihydroindol-1-yl]but-2-en-1-one] | 180 nM |
| CCOC(=O)/C=C/C(=O)N1CCc2ccc(-c3n[nH]c4ccccc34)cc21 [Compound 7, ethyl (2E)-4-[6-(1H-indazol-3-yl)-2,3-dihydroindol-1-yl]-4-oxobut-2-enoate] | 3900 nM |
| C=C(F)C(=O)N1CCc2ccc(-c3n[nH]c4ccccc34)cc21 [Compound 8, 2-fluoro-1-[6-(1H-indazol-3-yl)-2,3-dihydroindol-1-yl]prop-2-en-1-one] | 840 nM |
| C/C=C/C(=O)N1CCc2ccc(-c3n[nH]c4ccccc34)cc21 [Compound 9, (2E)-1-[6-(1H-indazol-3-yl)-2,3-dihydroindol-1-yl]but-2-en-1-one] | 1100 nM |
| C=CC(=O)N1CCCc2ccc(-c3n[nH]c4cnccc34)cc21 [Compound 10, 1-(7-{1H-pyrazolo[3,4-c]pyridin-3-yl}-3,4-dihydro-2H-quinolin-1-yl)prop-2-en-1-one] | 550 nM |
| C=CC(=O)N1CCCc2ccc(-c3n[nH]c4ccncc34)cc21 [Compound 11, 1-(7-{1H-pyrazolo[4,3-c]pyridin-3-yl}-3,4-dihydro-2H-quinolin-1-yl)prop-2-en-1-one] | 1400 nM |
| C=CC(=O)N1CCCc2ccc(-c3n[nH]c4cc(C)ccc34)cc21 [Compound 12, 1-[7-(6-methyl-1H-indazol-3-yl)-3,4-dihydro-2H-quinolin-1-yl]prop-2-en-1-one] | 160 nM |
| C=CC(=O)N1CCOc2ccc(-c3n[nH]c4ccccc34)cc21 [Compound 13, 1-[6-(1H-indazol-3-yl)-2,3-dihydro-1,4-benzoxazin-4-yl]prop-2-en-1-one] | 140 nM |
| C=CC(=O)N1CCc2ccc(-c3n[nH]c4ccccc34)cc21 [Compound 14, 1-[6-(1H-indazol-3-yl)-2,3-dihydroindol-1-yl]prop-2-en-1-one] | 19 nM |
| C=CC(=O)N1c2cc(-c3n[nH]c4ncccc34)ccc2CC1C (stereo not drawn) [Compound 15, 1-[2-methyl-6-{1H-pyrazolo [3,4-b]pyridin-3-yl}-2,3-dihydroindol-1-yl]prop-2-en-1-one] | 440 nM |
| C=CC(=O)N1c2cc(-c3n[nH]c4ncccc34)ccc2C[C@@H]1C [Compound 15-B] | 160 nM |
| C=CS(=O)(=O)N1CCc2ccc(-c3n[nH]c4ncccc34)cc21 [Compound 16, 1-(ethenesulfonyl)-6-{1H-pyrazolo[3,4-b]pyridin-3-yl}-2,3-dihydroindole] | 7.7 nM |
| C=CC(=O)N1CCc2ccc(-c3n[nH]c4ncccc34)c(F)c21 [Compound 17, 1-(7-fluoro-6-{1H-pyrazolo[3,4-b]pyridin-3-yl}-2,3-dihydroindol-1-yl)prop-2-en-1-one] | 88 nM |
| C=CC(=O)N1CCc2ccc(-c3n[nH]c4cc(C#N)ccc34)cc21 [Compound 18, 3-[1-(prop-2-enoyl)-2,3-dihydroindol-6-yl]-1H-indazole-6-carbonitrile] | 6 nM |
